Measured values as given in PubChem BioAssay AID330 (DTP/NCI, 2004).
“And” between values parts separate entries of the source, which are not always exact repeats. Identical values can stand only once. Toxic doses and inconclusive results are not listed.

Test system: P388 leukemia ip, CD2F1 mice, survival T/C
Assay: NCI In Vivo Anticancer Drug Screen. Data for tumor model P388 Leukemia (intraperitoneal) in CD2F1 (CDF1) mice
Details: endpoint: median survival time, higher = longer survival
Summary of the method: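 Mice carrying the transplanted tumor received test compound or vehicle. Survival was recorded in each group, and the value is the treated-group measurement divided by that of the vehicle-treated control group.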

[1] = dose: 100.0 mg/kg/injection, schedule: Q04DX003 (ip), vehicle: saline with Tween-80
[2] = dose: 200.0 mg/kg/injection, schedule: Q04DX003 (ip), vehicle: saline with Tween-80
[3] = dose: 400.0 mg/kg/injection, schedule: Q04DX003 (ip), vehicle: saline with Tween-80
[4] = dose: 25.0 mg/kg/injection, schedule: Q01DX009 (ip), vehicle: other
[5] = dose: 50.0 mg/kg/injection, schedule: Q01DX009 (ip), vehicle: other
[6] = dose: 100.0 mg/kg/injection, schedule: Q01DX009 (ip), vehicle: other
[7] = dose: 200.0 mg/kg/injection, schedule: Q01DX009 (ip), vehicle: other
[8] = dose: 50.0 mg/kg/injection, schedule: Q01DX009 (ip), vehicle: saline with Tween-80
[9] = dose: 100.0 mg/kg/injection, schedule: Q01DX009 (ip), vehicle: saline with Tween-80
[10] = dose: 200.0 mg/kg/injection, schedule: Q01DX009 (ip), vehicle: saline with Tween-80
[11] = dose: 200.0 mg/kg/injection, schedule: Q04DX003 (ip), vehicle: Klucel (hydroxypropylcellulose) (HPC)
[12] = dose: 100.0 mg/kg/injection, schedule: Q04DX003 (ip), vehicle: Klucel (hydroxypropylcellulose) (HPC)
[13] = dose: 400.0 mg/kg/injection, schedule: Q04DX003 (ip), vehicle: Klucel (hydroxypropylcellulose) (HPC)
[14] = dose: 50.0 mg/kg/injection, schedule: Q01DX009 (ip), vehicle: Klucel (hydroxypropylcellulose) (HPC)
[15] = dose: 100.0 mg/kg/injection, schedule: Q01DX009 (ip), vehicle: Klucel (hydroxypropylcellulose) (HPC)
[16] = dose: 200.0 mg/kg/injection, schedule: Q01DX009 (ip), vehicle: Klucel (hydroxypropylcellulose) (HPC)

CCOC(=O)NC(=S)Nc1ccn(C)c1
T/C (dose: 50.0 mg/kg/injection, schedule: Q04DX003 (ip), vehicle: saline with Tween-80): 99 % of control and 101 % of control | T/C [1]: 100 % of control and 94 % of control and 97 % of control | T/C [2]: 100 % of control | T/C [3]: 98 % of control and 103 % of control and 97 % of control

CC1CCC(C(C)(C)c2ccccc2)C(OC(=O)C2C3CCC=C3C3CC(C)(C)CC32)C1 (configuration not stated)
T/C (dose: 21.25 mg/kg/injection, schedule: Q01DX005 (ip), vehicle: saline with Tween-80): 99 % of control | T/C (dose: 42.5 mg/kg/injection, schedule: Q01DX005 (ip), vehicle: saline with Tween-80): 96 % of control | T/C (dose: 85.0 mg/kg/injection, schedule: Q01DX005 (ip), vehicle: saline with Tween-80): 100 % of control

Cc1cc2ccccc2cc1N
T/C (dose: 50.0 mg/kg/injection, schedule: Q01DX009 (ip), vehicle: saline): 106 % of control | T/C (dose: 100.0 mg/kg/injection, schedule: Q01DX009 (ip), vehicle: saline): 100 % of control | T/C (dose: 200.0 mg/kg/injection, schedule: Q01DX009 (ip), vehicle: saline): 97 % of control

[Cl][Pt+2][Cl].[NH-]C1CCCCCCC1.[NH-]C1CCCCCCC1
T/C (dose: 12.5 mg/kg/injection, schedule: Q01DX009 (ip), vehicle: other): 106 % of control | T/C [4]: 97 % of control | T/C [5]: 101 % of control | T/C [6]: 117 % of control | T/C [7]: 108 % of control

OC1c2ccccc2OC2(N3CCCC3)CCCCC12 (configuration not stated)
T/C [8]: 98 % of control | T/C [9]: 94 % of control | T/C [10]: 91 % of control

C[C@@H]1O[C@H]2O[C@@H]3[C@@H](C)O[C@@H](c4ccc5c(c4O)C(=O)c4ccc(C[C@@](C)(O)CC(=O)O)c(O)c4C5=O)C[C@H]3O[C@H]2CC1=O
T/C (dose: 23.5 mg/kg/injection, schedule: Q01DX005 (ip), vehicle: Klucel (hydroxypropylcellulose) (HPC)): 105 % of control | T/C (dose: 47.0 mg/kg/injection, schedule: Q01DX005 (ip), vehicle: Klucel (hydroxypropylcellulose) (HPC)): 105 % of control | T/C (dose: 94.0 mg/kg/injection, schedule: Q01DX005 (ip), vehicle: Klucel (hydroxypropylcellulose) (HPC)): 97 % of control

Cc1csc(NN=O)n1
T/C (dose: 1.56 mg/kg/injection, schedule: Q01DX009 (ip), vehicle: water): 98 % of control | T/C (dose: 3.12 mg/kg/injection, schedule: Q01DX009 (ip), vehicle: water): 104 % of control and 95 % of control | T/C (dose: 6.25 mg/kg/injection, schedule: Q01DX009 (ip), vehicle: water): 105 % of control and 96 % of control | T/C (dose: 12.5 mg/kg/injection, schedule: Q01DX009 (ip), vehicle: water): 100 % of control and 102 % of control | T/C (dose: 25.0 mg/kg/injection, schedule: Q01DX009 (ip), vehicle: water): 99 % of control and 102 % of control | T/C (dose: 50.0 mg/kg/injection, schedule: Q01DX009 (ip), vehicle: water): 111 % of control

CCOc1ccc(/C=N/Nc2ccc([N+](=O)[O-])cc2)cc1OC
T/C [1]: 95 % of control | T/C [2]: 90 % of control | T/C [3]: 90 % of control

CN(C)c1ccc(C2OC(=N)C(=S)N2C)cc1 (configuration not stated)
T/C (dose: 60.0 mg/kg/injection, schedule: Q01DX005 (ip), vehicle: Klucel (hydroxypropylcellulose) (HPC)): 112 % of control | T/C (dose: 120.0 mg/kg/injection, schedule: Q01DX005 (ip), vehicle: Klucel (hydroxypropylcellulose) (HPC)): 109 % of control | T/C (dose: 240.0 mg/kg/injection, schedule: Q01DX005 (ip), vehicle: Klucel (hydroxypropylcellulose) (HPC)): 109 % of control

S=C(N/N=C/c1ccccn1)Nc1ccccn1
T/C (dose: 130.0 mg/kg/injection, schedule: Q04DX003 (ip), vehicle: Klucel (hydroxypropylcellulose) (HPC)): 117 % of control | T/C [11]: 123 % of control | T/C (dose: 300.0 mg/kg/injection, schedule: Q04DX003 (ip), vehicle: Klucel (hydroxypropylcellulose) (HPC)): 107 % of control

O=[N+]([O-])c1cccc2nc(Cl)ccc12
T/C [4]: 93 % of control | T/C [5]: 93 % of control | T/C [6]: 98 % of control

COC1/C=C\C=C(/C)C(=O)NC2=CC(=O)C(NC3CC3)=C(CC(C)CC(OC)C(O)C(C)/C=C(/C)C1OC(N)=O)C2=O (configuration not stated)
T/C (dose: 12.5 mg/kg/injection, schedule: Q04DX002 (ip), vehicle: saline with Tween-80): 107 % of control | T/C (dose: 18.75 mg/kg/injection, schedule: Q04DX002 (ip), vehicle: saline with Tween-80): 108 % of control | T/C (dose: 25.0 mg/kg/injection, schedule: Q04DX002 (ip), vehicle: saline with Tween-80): 107 % of control and 113 % of control | T/C (dose: 37.5 mg/kg/injection, schedule: Q04DX002 (ip), vehicle: saline with Tween-80): 108 % of control | T/C (dose: 50.0 mg/kg/injection, schedule: Q04DX002 (ip), vehicle: saline with Tween-80): 111 % of control and 113 % of control | T/C (dose: 75.0 mg/kg/injection, schedule: Q04DX002 (ip), vehicle: saline with Tween-80): 117 % of control | T/C (dose: 100.0 mg/kg/injection, schedule: Q04DX002 (ip), vehicle: saline with Tween-80): 120 % of control and 88 % of control

C[Si](C)(C)N([Si](C)(C)C)[Si](C)(C)C
T/C [5]: 97 % of control | T/C [6]: 98 % of control | T/C [7]: 100 % of control

COc1cc2c(cc1OC)C1CC(=O)C(C3(O)C(=O)Nc4ccccc43)CN1CC2 (configuration not stated)
T/C [12]: 99 % of control | T/C [11]: 99 % of control | T/C [13]: 112 % of control

COC(=O)Nc1cn2c(n1)sc1ccccc12
T/C (dose: 100.0 mg/kg/injection, schedule: Q01DX001 (ip), vehicle: saline with Tween-80): 100 % of control | T/C (dose: 200.0 mg/kg/injection, schedule: Q01DX001 (ip), vehicle: saline with Tween-80): 96 % of control | T/C (dose: 400.0 mg/kg/injection, schedule: Q01DX001 (ip), vehicle: saline with Tween-80): 91 % of control

CC(=O)OCC1OC(n2nnc(CCl)c2CCl)C(OC(C)=O)C(OC(C)=O)C1OC(C)=O (configuration not stated)
T/C [8]: 110 % of control | T/C [9]: 98 % of control | T/C [10]: 117 % of control

Cc1nc2c(ccc3cc4ccccc4cc32)cc1N(CCO)CCO
T/C (dose: 50.0 mg/kg/injection, schedule: Q01DX009 (ip), vehicle: saline + Tween-80 + alcohol): 110 % of control | T/C (dose: 100.0 mg/kg/injection, schedule: Q01DX009 (ip), vehicle: saline + Tween-80 + alcohol): 108 % of control | T/C (dose: 200.0 mg/kg/injection, schedule: Q01DX009 (ip), vehicle: saline + Tween-80 + alcohol): 99 % of control

O=C(O)Cc1ccc2c(c1)sc1nc(-c3ccc(Br)cc3)cn12
T/C [12]: 101 % of control | T/C [11]: 103 % of control | T/C [13]: 103 % of control

CCOC(=O)c1c(C)c2c(n1C)CCc1cn[nH]c1-2
T/C (dose: 25.0 mg/kg/injection, schedule: Q01DX009 (ip), vehicle: Klucel (hydroxypropylcellulose) (HPC)): 99 % of control | T/C [14]: 105 % of control | T/C [15]: 107 % of control | T/C [16]: 107 % of control | T/C (dose: 400.0 mg/kg/injection, schedule: Q01DX009 (ip), vehicle: Klucel (hydroxypropylcellulose) (HPC)): 98 % of control | T/C (dose: 600.0 mg/kg/injection, schedule: Q01DX009 (ip), vehicle: Klucel (hydroxypropylcellulose) (HPC)): 98 % of control

COc1cccc(OCC(=O)O)c1OC
T/C (dose: 100.0 mg/kg/injection, schedule: Q01DX001 (ip), vehicle: Klucel (hydroxypropylcellulose) (HPC)): 98 % of control | T/C (dose: 200.0 mg/kg/injection, schedule: Q01DX001 (ip), vehicle: Klucel (hydroxypropylcellulose) (HPC)): 97 % of control

N#C/C(=C/c1ccco1)c1ccc(Cl)cc1
T/C [14]: 90 % of control | T/C [15]: 95 % of control | T/C [16]: 92 % of control

Nc1nc(=O)nc2[nH]c3c4cccc5cccc(c3nc12)c54 (tested in a mixture with another compound)
T/C (dose: 12.5 mg/kg/injection, schedule: Q01DX005 (ip), vehicle: Klucel (hydroxypropylcellulose) (HPC)): 92 % of control and 98 % of control | T/C (dose: 25.0 mg/kg/injection, schedule: Q01DX005 (ip), vehicle: Klucel (hydroxypropylcellulose) (HPC)): 101 % of control and 104 % of control | T/C (dose: 50.0 mg/kg/injection, schedule: Q01DX005 (ip), vehicle: Klucel (hydroxypropylcellulose) (HPC)): 100 % of control and 106 % of control and 112 % of control | T/C (dose: 100.0 mg/kg/injection, schedule: Q01DX005 (ip), vehicle: Klucel (hydroxypropylcellulose) (HPC)): 116 % of control

Cc1cc2c(=O)cc(-c3ccccc3)oc2c(C(=O)O)c1C
T/C (dose: 30.0 mg/kg/injection, schedule: Q01DX005 (ip), vehicle: saline with Tween-80): 103 % of control | T/C (dose: 60.0 mg/kg/injection, schedule: Q01DX005 (ip), vehicle: saline with Tween-80): 114 % of control and 118 % of control | T/C (dose: 240.0 mg/kg/injection, schedule: Q01DX005 (ip), vehicle: saline with Tween-80): 161 % of control
